ChEMBL document CHEMBL1201862, “PubChem BioAssay data set” (2004)
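Method: 48-hour compound exposure of cells in 96-well plates, five concentrations, linear interpolation of endpoints. GI50 = concentration required for 50% inhibition of growth.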 Activity calls are given as the source filed them. Cut-off read from the data, not from the text of the source: active = GI50 up to about 1.1 µM and inactive = higher.

How the values were obtained:
Assay in all cases: growth of human tumour cells (NCI), 48 h
MOLT-4 = tested on: MOLT-4
SF-295 = tested on: SF-295
SNB-19 = tested on: SNB-19
RXF 393 = tested on: RXF 393
OVCAR-3 = tested on: OVCAR-3
HCT-116 = tested on: HCT-116
786-0 = tested on: 786-0
OVCAR-8 = tested on: OVCAR-8
HCT-15 = tested on: HCT-15
SF-539 = tested on: SF-539
LOX IMVI = tested on: LOX IMVI
HT-29 = tested on: HT-29
K562 = tested on: K562
OVCAR-4 = tested on: OVCAR-4
CAKI-1 = tested on: CAKI-1

SMILES	GI50 (MOLT-4)	GI50 (SF-295)	GI50 (SNB-19)	GI50 (RXF 393)	GI50 (OVCAR-3)	GI50 (HCT-116)	GI50 (786-0)	GI50 (OVCAR-8)	GI50 (HCT-15) [µM]	GI50 (SF-539)	GI50 (LOX IMVI)	GI50 (HT-29)	GI50 (K562)	GI50 (OVCAR-4)	GI50 (CAKI-1)
NC1CCCCC1.O=C(O)C(CP(=O)(O)O)=C(Cl)Cl	> 100 µM (inactive)	> 100 µM (inactive)	> 100 µM (inactive)	> 100 µM (inactive)	> 100 µM (inactive)	> 100 µM (inactive)	> 100 µM (inactive)	> 100 µM (inactive)	> 100	> 100 µM (inactive)	> 100 µM (inactive)	> 100 µM (inactive)			
N=C(N)Cn1cnc2ccccc21	> 100 µM (inactive)	> 100 µM (inactive)	> 100 µM (inactive)	> 100 µM (inactive)	> 100 µM (inactive)		> 100 µM (inactive)	> 100 µM (inactive)	> 100	> 100 µM (inactive)	> 100 µM (inactive)		> 100 µM (inactive)		
CN(C)CCC[N+]1=Nc2cccc3cccc(c23)N1	24.4 µM (inactive)	> 100 µM (inactive)	> 100 µM (inactive)		> 100 µM (inactive)	44.6 µM (inactive)	49.8 µM (inactive)	46.6 µM (inactive)	39.3	99.5 µM (inactive)	31.9 µM (inactive)	33.6 µM (inactive)	31.8 µM (inactive)	47.1 µM (inactive)	37.1 µM (inactive)
CCCC(=O)C(CC)/C(CCC(=O)N(Cc1ccccc1)Cc1ccccc1)=N/NC(=O)C[N+](C)(C)C (configuration not stated)	> 100 µM (inactive)	> 100 µM (inactive)	> 100 µM (inactive)	> 100 µM (inactive)	> 100 µM (inactive)	> 100 µM (inactive)	> 100 µM (inactive)	> 100 µM (inactive)		> 100 µM (inactive)		> 100 µM (inactive)	> 100 µM (inactive)	> 100 µM (inactive)	> 100 µM (inactive)
CC/N=C(/C#N)NCC	> 100 µM (inactive)	> 100 µM (inactive)	> 100 µM (inactive)		> 100 µM (inactive)	> 100 µM (inactive)	63 µM (inactive)	> 100 µM (inactive)	46.2	> 100 µM (inactive)	> 100 µM (inactive)	40.2 µM (inactive)	> 100 µM (inactive)	> 100 µM (inactive)	> 100 µM (inactive)
Cc1c2c(ccc3ccccc32)c[n+]2ccccc12	6.59 µM (inactive)	3.78 µM (inactive)	2.07 µM (inactive)		2.27 µM (inactive)	21.8 µM (inactive)	10.1 µM (inactive)	12.4 µM (inactive)	86.9	13.9 µM (inactive)		49.7 µM (inactive)	11.6 µM (inactive)	12 µM (inactive)	> 100 µM (inactive)
Cc1nnc2n1N=C(CC(=O)c1ccc(O)cc1O)CN2N		> 100 µM (inactive)	> 100 µM (inactive)	> 100 µM (inactive)		55.7 µM (inactive)	> 100 µM (inactive)		15.5	> 100 µM (inactive)	68.9 µM (inactive)	> 100 µM (inactive)	> 100 µM (inactive)	> 100 µM (inactive)	> 100 µM (inactive)
CC(C)C(=O)N[C@@H](C)C(=O)N(Cc1ccc2ccccc2c1)N=O	39.4 µM (inactive)	48.6 µM (inactive)	> 100 µM (inactive)		62.7 µM (inactive)	68.9 µM (inactive)	> 100 µM (inactive)	> 100 µM (inactive)	77.4	> 100 µM (inactive)	46 µM (inactive)	> 100 µM (inactive)	36.1 µM (inactive)	54.7 µM (inactive)	40.5 µM (inactive)
COc1ccc(C(=O)Nc2ccccc2C#N)cc1		> 100 µM (inactive)	> 100 µM (inactive)	> 100 µM (inactive)	> 100 µM (inactive)	> 100 µM (inactive)	> 100 µM (inactive)	> 100 µM (inactive)	> 100	> 100 µM (inactive)	> 100 µM (inactive)	> 100 µM (inactive)	> 100 µM (inactive)	> 100 µM (inactive)	> 100 µM (inactive)
